Results: US9029337B2, “Modulation of factor 7 expression” (Isis Pharmaceuticals, Inc., priority 2007, dated 2015)
Strand notation (5' to 3'): a small letter for the sugar, then the base; units joined by * are phosphorothioate-linked, units joined directly phosphodiester-linked; [ ] holds rarer units or linkages, { } end groups; capitals alone tell only the bases. e = 2'-O-(2-methoxyethyl) (MOE); [5mC] = 5-methylcytosine; d = 2'-deoxy (DNA)

Assays:
human Factor 7 mRNA = assay: Antisense inhibition of human Factor 7 with short (14-mer) oligonucleotides in HepB3 cells, electroporation 1,000 nM; format: cell-based; conditions: electroporation, 1,000 nM antisense oligonucleotide, approximately 24 hours, Factor 7 mRNA relative to untreated control cells
Summary of the method: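 14-mer 2-10-2 MOE gapmers (full phosphorothioate, 5-methyl-C) electroporated at 1,000 nM into HepB3 cells at 20,000 cells/well. After ~24 h, Factor 7 mRNA by real-time RT-PCR, normalized to RiboGreen total RNA. Reported as % inhibition relative to untreated cells.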

murine Factor 7 mRNA = assay: Multiple dose pharmacokinetic assay: liver Factor 7 mRNA in mice; format: in vivo, mouse; conditions: for % Inhibition: liver Factor 7 mRNA, mice, relative to PBS control
Protocol: The duration of action of multiple doses of ISIS 403102 on antisense inhibition of murine Factor 7 and clotting time was evaluated. In a first group of mice, 25 mg/kg of ISIS 403102 was injected subcutaneously as a single dose. Mice from the first group were sacrificed on days 1 and 3 after the single dose. In a second group of mice, 25 mg/kg of ISIS 403102 was administered subcutaneously twice a week for 1 week. Mice from the second group were sacrificed on day 3 after the last dose of ISIS 403102 was administered. In a third group of mice, 25 mg/kg of ISIS 403102 was administered subcutaneously twice a week for 2 weeks. Mice from the third group were sacrificed on day 3 after the last dose of ISIS 403102 was administered. In a fourth group of mice, 25 mg/kg of ISIS 403102 was administered subcutaneously twice a week for 3 weeks. Mice from the fourth group were sacrificed on days 2, 7, 14, 28, 42, and 56 after the last dose of ISIS 403102 was administered. A control group of 3 mice was injected with PBS in a single dose. Mice from the control group were sacrificed 1 day later. Mice in all groups were sacrificed by cervical dislocation following anesthesia with 150 mg/kg ketamine mixed with 10 mg/kg xylazine administered by intraperitoneal injection. Liver was harvested for RNA analysis and plasma was collected for clotting analysis (PT and aPTT) for mice in all groups.
RNA was extracted from liver tissue for quantitative RT-PCR analysis of Factor 7. Results are presented as percent inhibition of Factor 7, relative to PBS control. […] Inhibition increased through day 3 in the single dose treatment group. […] Inhibition increased through day 3 in the 2 dose treatment group.

[1] = tested on: intrinsic pathway of blood coagulation; assay: Activated Partial Thromboplastin Time (aPTT) in platelet poor plasma of treated BALB/c mice; format: in vivo, mouse
Protocol: (§1) Prothrombin Time (PT) and Activated Partial Thromboplastin Time (aPTT) were measured using platelet poor plasma (PPP) from mice treated with ISIS 403102. PT and aPTT values provided in Table 20 are reported as International Normalized Ratio (INR) values. INR values for PT and aPTT were determined by dividing the PT or aPTT value for the experimental group by the PT or aPTT for the PBS treated group. This ratio was then raised to the power of the International Sensitivity Index (ISI) of the tissue factor used.
as §1, with “in Table 22 are reported” for “in Table 20 are reported”, “experimental group (i.e. 50 mg/kg treatment with ISIS 403102) by the” for “experimental group by the”
as §1, with “in Table 24 are reported” for “in Table 20 are reported”, “experimental group (i.e. 50 mg/kg treatment with ISIS 403102) by the” for “experimental group by the”

In the case of “407939 (antisense eT*eG*e[5mC]*eA*eG*d[5mC]*d[5mC]*d[5mC]*dG*dG*d[5mC]*dA*d[5mC]*d[5mC]*d[5mC]*eA*eG*e[5mC]*eG*eA) [compound 407939]”, the “% Inhibition” value (human Factor 7 mRNA) is reported as 81%.
For “CCATAGAACAGCTTCACAGG (sugars from the 5' end e5 d10 e5, backbone and methylation of C not given here) [ISIS 403102]”, the “Factor 7 inhibition” value (murine Factor 7 mRNA; 6 doses of 25 mg/kg, days 14, 28, 42 and 56 after last dose) was “declined progressively”, the “% Inhibition” value (murine Factor 7 mRNA; 25 mg/kg subcutaneously twice a week, 2 doses, 3 days after last dose) was 86% and the “% Inhibition” value (murine Factor 7 mRNA; 25 mg/kg subcutaneously twice a week, 4 doses, 3 days after last dose) was 91%. The “% Inhibition” value (murine Factor 7 mRNA; 25 mg/kg subcutaneously twice a week, 6 doses, 2 days after last dose) was 83%, the “% Inhibition” value (murine Factor 7 mRNA; 25 mg/kg subcutaneously twice a week, 6 doses, 7 days after last dose) was 88% and the “% Inhibition” value (murine Factor 7 mRNA; 25 mg/kg subcutaneously twice a week, 6 doses, 14 days after last dose) was 64%. For the same substance, the “% Inhibition” value (murine Factor 7 mRNA; 25 mg/kg subcutaneously twice a week, 6 doses, 28 days after last dose) was 33%, the “% Inhibition” value (murine Factor 7 mRNA; 25 mg/kg subcutaneously twice a week, 6 doses, 42 days after last dose) was 5% and the “% Inhibition” value (murine Factor 7 mRNA; 25 mg/kg subcutaneously twice a week, 6 doses, 56 days after last dose) was 11%. The “% Inhibition” value (murine Factor 7 mRNA; 25 mg/kg subcutaneously, 1 dose, 1 day after last dose) was 44%, the “% Inhibition” value (murine Factor 7 mRNA; 25 mg/kg subcutaneously, 1 dose, 3 days after last dose) was 74% and the “inhibition of Factor 7 mRNA” value (murine Factor 7 mRNA; single dose 25 mg/kg subcutaneously) was “inhibition of Factor 7 as early as day 1”. For the same substance, the “aPTT INR” value ([1]; BALB/c mice, 5 mg/kg, relative to PBS treated group) was 1.05, the “aPTT INR” value ([1]; BALB/c mice, 10 mg/kg, relative to PBS treated group) was 1.04 and the “aPTT INR” value ([1]; BALB/c mice, 25 mg/kg, relative to PBS treated group) was 1.09. The “aPTT INR” value ([1]; BALB/c mice, 50 mg/kg, 1 dose, 1 day after last dose, relative to PBS group) was 1.08 INR, the “aPTT INR” value ([1]; BALB/c mice, 50 mg/kg, 1 dose, 3 days after last dose, relative to PBS group) was 1.10 INR and the “aPTT INR” value ([1]; BALB/c mice, 50 mg/kg, 2 doses, 3 days after last dose, relative to PBS group) was 1.29 INR. The “aPTT INR” value ([1]; BALB/c mice, 50 mg/kg, 4 doses, 3 days after last dose, relative to PBS group) was 1.53 INR, the “aPTT INR” value ([1]; BALB/c mice, 50 mg/kg, 6 doses, 2 days after last dose, relative to PBS group) was 1.62 INR and the “aPTT INR” value ([1]; BALB/c mice, 50 mg/kg, 6 doses, 7 days after last dose, relative to PBS group) was 1.67 INR. The “aPTT INR” value ([1]; BALB/c mice, 50 mg/kg, 6 doses, 14 days after last dose, relative to PBS group) was 1.25 INR, the “aPTT INR” value ([1]; BALB/c mice, 50 mg/kg, 6 doses, 28 days after last dose, relative to PBS group) was 0.90 INR and the “aPTT INR” value ([1]; BALB/c mice, 50 mg/kg, 6 doses, 42 days after last dose, relative to PBS group) was 1.00 INR. The “aPTT INR” value ([1]; BALB/c mice, 50 mg/kg, 6 doses, 56 days after last dose, relative to PBS group) was 0.98 INR, the “aPTT INR” value ([1]; BALB/c mice, 50 mg/kg, relative to PBS treated group) was 1.16 and the “aPTT INR” value ([1]; BALB/c mice, single dose 50 mg/kg, day 1) was 1.00. For the same substance, the “aPTT INR” value ([1]; BALB/c mice, single dose 50 mg/kg, day 2) was 1.05, the “aPTT INR” value ([1]; BALB/c mice, single dose 50 mg/kg, day 3) was 1.24 and the “aPTT INR” value ([1]; BALB/c mice, single dose 50 mg/kg, day 4) was 1.15. For the same substance, the “aPTT INR” value ([1]; BALB/c mice, single dose 50 mg/kg, day 6) was 1.23, the “aPTT INR” value ([1]; BALB/c mice, single dose 50 mg/kg, day 8) was 1.18 and the “aPTT INR” value ([1]; BALB/c mice, single dose 50 mg/kg, day 12) was 1.18. The “aPTT INR” value ([1]; BALB/c mice, single dose 50 mg/kg, day 24) was 1.02, the “aPTT INR” value ([1]; BALB/c mice, single dose 50 mg/kg, day 56) was 0.97 and the “aPTT compared to the control” value ([1]; Example 11, 5-50 mg/kg twice a week for 3 weeks) was “slightly prolonged”. For the same substance, the aPTT ([1]; Example 13, 6 doses, from day 7 to day 56) was “decreased”, the “aPTT INR” value ([1]; single dose 50 mg/kg, day 4) was 1.24 and the “aPTT INR” value ([1]; single dose 50 mg/kg, day 56) was 0.97. The “aPTT INR” value ([1]; single dose 50 mg/kg, starting value before the rise to day 4) was 1.00.
